# According to the supplement of paper PMC10307832:
# What was measured:
# Assay in all cases: relative viability (nuclei count vs DMSO), 5 days (fraction); higher = more cells survive
# [1] = test system: HCC-366
# Procedure, shortened: (§1)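 Lung cancer cell lines in 1536-well plates got either a single drug or a fixed anchor-drug dose together with five library-drug doses (not always all listed) in √10 steps, by pin tool, on the day after seeding. Nuclei were counted after 5 days, and relative viability is the treated-to-vehicle ratio of nuclei counts. Values are medians of duplicate plates.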
# [2] = test system: LOU-NH91
# Procedure, shortened: as §1
# [3] = test system: NCI-H460
# Procedure, shortened: as §1
# [4] = test system: NCI-H1734
# Procedure, shortened: as §1
# [5] = test system: NCI-H1793
# Procedure, shortened: as §1
# [6] = test system: NCI-H2228
# Procedure, shortened: as §1
# [7] = test system: ABC-1
# Procedure, shortened: as §1
# [8] = test system: NCI-H1755
# Procedure, shortened: as §1
# [9] = test system: CAL-12T
# Procedure, shortened: as §1
# [10] = test system: NCI-H1395
# Procedure, shortened: as §1
# [11] = test system: NCI-H2087
# Procedure, shortened: as §1
# [12] = test system: ChaGo-K-1
# Procedure, shortened: as §1
# [13] = test system: NCI-H1944
# Procedure, shortened: as §1
# [14] = test system: LU99A
# Procedure, shortened: as §1
# [15] = test system: UMC-11
# Procedure, shortened: as §1
# [16] = test system: RERF-LC-KJ
# Procedure, shortened: as §1
# [17] = test system: NCI-H1651
# Procedure, shortened: as §1
# [18] = test system: NCI-H2405
# Procedure, shortened: as §1
# [19] = test system: LC-2-ad
# Procedure, shortened: as §1
# [20] = test system: NCI-H3122
# Procedure, shortened: as §1
# [21] = test system: HCC-78
# Procedure, shortened: as §1
# [22] = test system: PC-3 [JPC-3]
# Procedure, shortened: as §1
# [23] = test system: NCI-H2170
# Procedure, shortened: as §1
smiles,measurement,setting,value
Oc1nc(-c2ccc(C(F)(F)F)cc2)nc2c1CSCC2 [XAV939] + Cc1cc(Nc2cc(N3CCN(C)CC3)nc(Sc3ccc(NC(=O)C4CC4)cc3)n2)n[nH]1 [Tozasertib] (partner 0.1 µM),relative viability,[1]; first compound 0.08 µM,0.163
same,relative viability,[1]; first compound 0.253 µM,0.0951
same,relative viability,[1]; first compound 0.8 µM,0.116
same,relative viability,[1]; first compound 2.53 µM,0.0569
same,relative viability,[2]; first compound 0.08 µM,0.655
same,relative viability,[2]; first compound 0.253 µM,0.663
same,relative viability,[2]; first compound 0.8 µM,0.637
same,relative viability,[2]; first compound 2.53 µM,0.695
same,relative viability,[3]; first compound 0.08 µM,0.587
same,relative viability,[3]; first compound 0.253 µM,0.392
same,relative viability,[3]; first compound 0.8 µM,0.45
same,relative viability,[3]; first compound 2.53 µM,0.289
same,relative viability,[4]; first compound 0.08 µM,0.243
same,relative viability,[4]; first compound 0.253 µM,0.206
same,relative viability,[4]; first compound 0.8 µM,0.261
same,relative viability,[4]; first compound 2.53 µM,0.293
same,relative viability,[5]; first compound 0.08 µM,0.403
same,relative viability,[5]; first compound 0.253 µM,0.297
same,relative viability,[5]; first compound 0.8 µM,0.306
same,relative viability,[5]; first compound 2.53 µM,0.263
same,relative viability,[6]; first compound 0.08 µM,0.31
same,relative viability,[6]; first compound 0.253 µM,0.23
same,relative viability,[6]; first compound 0.8 µM,0.247
same,relative viability,[6]; first compound 2.53 µM,0.255
same,relative viability,[7]; first compound 0.08 µM,0.126
same,relative viability,[7]; first compound 0.253 µM,0.169
same,relative viability,[7]; first compound 0.8 µM,0.166
same,relative viability,[7]; first compound 2.53 µM,0.165
same,relative viability,[8]; first compound 0.08 µM,0.575
same,relative viability,[8]; first compound 0.253 µM,0.518
same,relative viability,[8]; first compound 0.8 µM,0.587
same,relative viability,[8]; first compound 2.53 µM,0.481
same,relative viability,[9]; first compound 0.08 µM,0.386
same,relative viability,[9]; first compound 0.253 µM,0.29
same,relative viability,[9]; first compound 0.8 µM,0.222
same,relative viability,[9]; first compound 2.53 µM,0.196
same,relative viability,[10]; first compound 0.08 µM,0.716
same,relative viability,[10]; first compound 0.253 µM,0.651
same,relative viability,[10]; first compound 0.8 µM,0.797
same,relative viability,[10]; first compound 2.53 µM,0.632
same,relative viability,[11]; first compound 0.08 µM,0.234
same,relative viability,[11]; first compound 0.253 µM,0.231
same,relative viability,[11]; first compound 0.8 µM,0.256
same,relative viability,[11]; first compound 2.53 µM,0.181
same,relative viability,[12]; first compound 0.08 µM,0.216
same,relative viability,[12]; first compound 0.253 µM,0.223
same,relative viability,[12]; first compound 0.8 µM,0.222
same,relative viability,[12]; first compound 2.53 µM,0.209
same,relative viability,[13]; first compound 0.08 µM,0.261
same,relative viability,[13]; first compound 0.253 µM,0.228
same,relative viability,[13]; first compound 0.8 µM,0.235
same,relative viability,[13]; first compound 2.53 µM,0.224
same,relative viability,[14]; first compound 0.08 µM,0.268
same,relative viability,[14]; first compound 0.253 µM,0.261
same,relative viability,[14]; first compound 0.8 µM,0.237
same,relative viability,[14]; first compound 2.53 µM,0.284
same,relative viability,[15]; first compound 0.08 µM,0.189
same,relative viability,[15]; first compound 0.253 µM,0.205
same,relative viability,[15]; first compound 0.8 µM,0.19
same,relative viability,[15]; first compound 2.53 µM,0.211
same,relative viability,[16]; first compound 0.08 µM,0.546
same,relative viability,[16]; first compound 0.253 µM,0.465
same,relative viability,[16]; first compound 0.8 µM,0.462
same,relative viability,[16]; first compound 2.53 µM,0.409
same,relative viability,[17]; first compound 0.08 µM,0.726
same,relative viability,[17]; first compound 0.253 µM,0.58
same,relative viability,[17]; first compound 0.8 µM,0.763
same,relative viability,[17]; first compound 2.53 µM,0.639
same,relative viability,[18]; first compound 0.08 µM,0.805
same,relative viability,[18]; first compound 0.253 µM,0.72
same,relative viability,[18]; first compound 0.8 µM,0.712
same,relative viability,[18]; first compound 2.53 µM,0.66
same,relative viability,[19]; first compound 0.08 µM,0.481
same,relative viability,[19]; first compound 0.253 µM,0.446
same,relative viability,[19]; first compound 0.8 µM,0.488
same,relative viability,[19]; first compound 2.53 µM,0.381
same,relative viability,[20]; first compound 0.08 µM,0.569
same,relative viability,[20]; first compound 0.253 µM,0.407
same,relative viability,[20]; first compound 0.8 µM,0.389
same,relative viability,[20]; first compound 2.53 µM,0.337
same,relative viability,[21]; first compound 0.08 µM,0.558
same,relative viability,[21]; first compound 0.253 µM,0.373
same,relative viability,[21]; first compound 0.8 µM,0.531
same,relative viability,[21]; first compound 2.53 µM,0.368
same,relative viability,[22]; first compound 0.08 µM,0.901
same,relative viability,[22]; first compound 0.253 µM,0.833
same,relative viability,[22]; first compound 0.8 µM,0.857
same,relative viability,[22]; first compound 2.53 µM,0.744
same,relative viability,[23]; first compound 0.08 µM,0.763
same,relative viability,[23]; first compound 0.253 µM,0.606
same,relative viability,[23]; first compound 0.8 µM,0.66
same,relative viability,[23]; first compound 2.53 µM,0.463
